Earlier results in patent publication US6902746B2, “Oral pharmaceutical compositions containing non-steroidal anti-inflammatory drugs and method for preparing the same” (Yung Shin Pharmaceutical Industrial Co., Ltd., priority 2002, dated 2005).

Experiments:
[1] = animal studies; fraction of the effect of ketorolac tromethamine
[2] = animal studies; fraction of the effect of ketorolac tromethamine; remark: listed apart in the source
platelet aggregation = details: in vitro; fraction of the activity of ketorolac tromethamine
[3] = tested on: M.K. and δ opioid receptors
[4] = in vivo

In the case of `O=C(c1ccc(O)cc1)c1ccc2n1CCC2C(=O)O` (stereo not shown) [p-hydroxyketorolac], the “analgesic effect relative to ketorolac tromethamine” value [1] is given as 1/100, the “anti-inflammatory effect relative to ketorolac tromethamine” value [2] is given as “less than ⅕” and the “anti-platelet aggregation activity relative to ketorolac tromethamine” value (platelet aggregation) is given as 1/25.

In the case of `O=C(c1ccccc1)c1ccc2n1CCC2C(=O)O` (stereo not shown) [ketorolac], the “binding to opioid receptors” value [3] is listed as “does not bind”.

For “(±)-5-benzoyl-2,3-dihydro-1H-pyrrolizine-1-carboxylic acid 2-amino-2-(hydroxymethyl)-1,3-propanediol [Ketorolac tromethamine]”, the plasma half-lives ([4]; human) is given as “markedly prolonged”, the total clearance ([4]; human) is given as “decreased” and the “administered drug eliminated in the urine” value [4] is given as “about 75%”. The “administered drug, in its original form, found in the feces” value [4] was “About 6%”, the “bound to plasma proteins” value [4] was “about 99%” and the mean elimination half-live [4] was 5.3 h. For the same compound, the “mean volume of distribution at steady state” value [4] was 0.11 L/kg, the “mean volume of distribution during the elimination phase” value [4] was 0.17 to 0.25 L/kg and the “absorption in the presence of antacids” value ([4]; po) was “not affected”.
